Experiment: refractive index (other wavelength) (dimensionless); xn = mol fraction of the nth substance listed
Conditions: 101 kPa, Liquid, Standard Abbe refractometry

CC(C)OC(C)C [diisopropyl ether] + CC(C)O
refractive index
Conditions | Wavelength=404.7 nm | Wavelength=435.8 nm | Wavelength=486.1 nm | Wavelength=546.1 nm | Wavelength=587.6 nm | Wavelength=589.3 nm | Wavelength=632.8 nm | Wavelength=644 nm | Wavelength=706.5 nm
313.15 K, x1 = 0.0277 | – | – | – | – | – | 1.36835 | 1.36708 | 1.36678 | 1.36533
313.15 K, x1 = 0.0507 | – | – | – | – | – | 1.36828 | 1.367 | 1.3667 | 1.36524
313.15 K, x1 = 0.051 | – | – | – | – | – | 1.36822 | 1.36696 | 1.36665 | 1.3652
313.15 K, x1 = 0.0717 | – | – | – | – | – | 1.36787 | 1.36659 | 1.36629 | 1.36485
313.15 K, x1 = 0.1528 | – | – | – | – | – | 1.36718 | 1.3659 | 1.36561 | 1.36418
313.15 K, x1 = 0.1553 | – | – | – | – | – | 1.36718 | 1.3659 | 1.36561 | 1.36418
313.15 K, x1 = 0.1938 | – | – | – | – | – | 1.36694 | 1.36566 | 1.36537 | 1.36394
313.15 K, x1 = 0.2029 | – | – | – | – | – | 1.3664 | 1.36512 | 1.36482 | 1.36337
313.15 K, x1 = 0.245 | – | – | – | – | – | 1.36591 | 1.36465 | 1.36436 | 1.36294
313.15 K, x1 = 0.297 | – | – | – | – | – | 1.36507 | 1.36381 | 1.36351 | 1.36209
313.15 K, x1 = 0.2973 | – | – | – | – | – | 1.36529 | 1.36401 | 1.36372 | 1.3623
313.15 K, x1 = 0.3068 | – | – | – | – | – | 1.36504 | 1.36377 | 1.36347 | 1.36204
313.15 K, x1 = 0.398 | – | – | – | – | – | 1.3637 | 1.36244 | 1.36213 | 1.36071
313.15 K, x1 = 0.4609 | – | – | – | – | – | 1.36297 | 1.36172 | 1.36142 | 1.35999
313.15 K, x1 = 0.5434 | – | – | – | – | 1.36211 | 1.36206 | 1.36081 | 1.36051 | 1.35908
313.15 K, x1 = 0.6032 | – | – | – | – | 1.36136 | 1.3613 | 1.36007 | 1.35977 | 1.35834
313.15 K, x1 = 0.6371 | – | – | – | – | 1.36099 | 1.36094 | 1.3597 | 1.3594 | 1.358
313.15 K, x1 = 0.701 | – | – | – | – | 1.36025 | 1.36019 | 1.35895 | 1.35865 | 1.35723
313.15 K, x1 = 0.754 | – | – | – | – | 1.35981 | 1.35976 | 1.35851 | 1.35821 | 1.35681
313.15 K, x1 = 0.791 | – | – | – | – | 1.35941 | 1.35936 | 1.35812 | 1.35782 | 1.35641
313.15 K, x1 = 0.8296 | – | – | – | – | 1.35902 | 1.35897 | 1.35772 | 1.35742 | 1.35602
313.15 K, x1 = 0.8864 | – | – | – | – | 1.3589 | 1.35885 | 1.35758 | 1.35729 | 1.35589
313.15 K, x1 = 0.8903 | – | – | – | – | 1.35833 | 1.35827 | 1.35704 | 1.35674 | 1.35534
313.15 K, x1 = 0.9113 | – | – | – | – | 1.35809 | 1.35802 | 1.35679 | 1.3565 | 1.3551
313.15 K, x1 = 0.9547 | – | – | – | – | 1.35761 | 1.35756 | 1.35631 | 1.35601 | 1.3546
313.15 K, x1 = 0.973 | – | – | – | – | 1.35727 | 1.35722 | 1.35599 | 1.3557 | 1.35426
313.15 K, x1 = 0.9771 | – | – | – | – | 1.35715 | 1.3571 | 1.35587 | 1.35587 | 1.35416
313.15 K, x1 = 1 | – | – | – | – | 1.357 | 1.35694 | 1.35572 | 1.35543 | 1.35401
318.15 K, x1 = 0.0277 | 1.37668 | 1.37373 | 1.37036 | 1.36758 | 1.36611 | 1.36605 | 1.36479 | 1.36448 | 1.36305
318.15 K, x1 = 0.0507 | 1.37662 | 1.37367 | 1.3703 | 1.36752 | 1.36604 | 1.36598 | 1.36472 | 1.36443 | 1.363
318.15 K, x1 = 0.051 | 1.37654 | 1.3736 | 1.37024 | 1.36745 | 1.36598 | 1.36592 | 1.36464 | 1.36435 | 1.36292
318.15 K, x1 = 0.0717 | 1.37616 | 1.37322 | 1.36986 | 1.36708 | 1.36563 | 1.36557 | 1.36428 | 1.36398 | 1.36256
318.15 K, x1 = 0.1528 | 1.3755 | 1.37255 | 1.36919 | 1.36641 | 1.36495 | 1.36489 | 1.36364 | 1.36335 | 1.3619
318.15 K, x1 = 0.1553 | 1.3755 | 1.37255 | 1.36919 | 1.36641 | 1.36495 | 1.36489 | 1.36364 | 1.36335 | 1.3619
318.15 K, x1 = 0.1938 | 1.37525 | 1.37231 | 1.36894 | 1.36618 | 1.3647 | 1.36465 | 1.36338 | 1.36309 | 1.36166
318.15 K, x1 = 0.2029 | 1.37457 | 1.37164 | 1.36826 | 1.36546 | 1.36403 | 1.36398 | 1.36273 | 1.36243 | 1.361
318.15 K, x1 = 0.245 | 1.374 | 1.37107 | 1.36775 | 1.36498 | 1.36354 | 1.36348 | 1.36223 | 1.36194 | 1.36053
318.15 K, x1 = 0.297 | 1.37308 | 1.37014 | 1.36682 | 1.36402 | 1.36259 | 1.36254 | 1.36131 | 1.36101 | 1.35958
318.15 K, x1 = 0.2973 | 1.37334 | 1.3704 | 1.36706 | 1.36427 | 1.36283 | 1.36278 | 1.36153 | 1.36123 | 1.35982
318.15 K, x1 = 0.3068 | 1.37306 | 1.37013 | 1.36679 | 1.36402 | 1.3626 | 1.36255 | 1.36129 | 1.36098 | 1.35954
318.15 K, x1 = 0.398 | 1.37184 | 1.36891 | 1.36558 | 1.36283 | 1.36139 | 1.36134 | 1.36008 | 1.35978 | 1.35836
318.15 K, x1 = 0.4609 | 1.37087 | 1.36796 | 1.36464 | 1.36184 | 1.36044 | 1.36036 | 1.35912 | 1.35883 | 1.3574
318.15 K, x1 = 0.5434 | 1.36988 | 1.36693 | 1.36363 | 1.36086 | 1.35943 | 1.35938 | 1.35814 | 1.35784 | 1.35643
318.15 K, x1 = 0.6032 | 1.36911 | 1.36618 | 1.36282 | 1.36011 | 1.35865 | 1.3586 | 1.35735 | 1.35707 | 1.35568
318.15 K, x1 = 0.6371 | 1.36872 | 1.36578 | 1.36247 | 1.35971 | 1.35829 | 1.35824 | 1.35701 | 1.35671 | 1.35531
318.15 K, x1 = 0.701 | 1.36791 | 1.36501 | 1.36166 | 1.35892 | 1.35749 | 1.35743 | 1.35619 | 1.35591 | 1.35452
318.15 K, x1 = 0.754 | 1.36743 | 1.36453 | 1.36123 | 1.35847 | 1.35706 | 1.357 | 1.35577 | 1.35547 | 1.35407
318.15 K, x1 = 0.791 | 1.36699 | 1.36408 | 1.3608 | 1.35802 | 1.35663 | 1.35658 | 1.35537 | 1.35507 | 1.35364
318.15 K, x1 = 0.8296 | 1.36655 | 1.36364 | 1.36034 | 1.3576 | 1.35619 | 1.35614 | 1.35491 | 1.35461 | 1.3532
318.15 K, x1 = 0.8864 | 1.36644 | 1.36355 | 1.36022 | 1.35745 | 1.35605 | 1.35599 | 1.35478 | 1.35448 | 1.35309
318.15 K, x1 = 0.8903 | 1.36584 | 1.36294 | 1.35967 | 1.35689 | 1.35548 | 1.35543 | 1.35421 | 1.35391 | 1.35251
318.15 K, x1 = 0.9113 | 1.36554 | 1.36264 | 1.3594 | 1.35663 | 1.35521 | 1.35515 | 1.35395 | 1.35366 | 1.35225
318.15 K, x1 = 0.9547 | 1.3651 | 1.36222 | 1.35891 | 1.35618 | 1.35475 | 1.35469 | 1.35346 | 1.35317 | 1.3518
318.15 K, x1 = 0.973 | 1.3647 | 1.36182 | 1.35854 | 1.3558 | 1.35439 | 1.35433 | 1.35311 | 1.35281 | 1.35143
318.15 K, x1 = 0.9771 | 1.36468 | 1.36178 | 1.35849 | 1.35575 | 1.35433 | 1.35427 | 1.35304 | 1.35276 | 1.35139
318.15 K, x1 = 1 | 1.36447 | 1.36157 | 1.35832 | 1.35556 | 1.35416 | 1.35411 | 1.3529 | 1.35259 | 1.3512

— the NIST ThermoML archive (doi:10.1016/j.fluid.2014.09.014)
